Key:
[1] = biological target: T1, Abeta pathological aggregates (Homo sapiens, UniProt P05067); assay: Radiobinding competition assay against [^3H]-Abeta-Ref on AD brain homogenates (example compound 1); type: binding
T1 construct: Abeta pathological aggregates present in the human AD brain homogenates; from tissue; host or cells: human AD donor brain, Triton/sucrose-insoluble 100,000 x g pellet
Method: The procedure was adapted from the protocol described in Bagchi et al., 2013. Frozen tissue blocks from AD donors were thawed on ice and homogenized in high salt buffer (50 mM Tris-HCl pH 7.5, 0.75M NaCl, 5 mM EDTA) supplemented with protease inhibitors (Complete; Roche 11697498001) at 4° C. using a glass Dounce homogenizer. The homogenate was centrifuged at 100,000×g (38,000 RPM) in an ultracentrifuge (Beckman, XL100K) for one hour at 4° C. using a pre-cooled 70.1 rotor (Beckman, 342184). Pellets were resuspended in high salt buffer supplemented with 1% Triton X-100 and homogenized at 4° C. using a glass Dounce homogenizer. The homogenates were centrifuged again at 100,000×g (38,000 RPM, 70.1 rotor) for one hour at 4° C. Pellets were resuspended in high salt buffer supplemented with 1% Triton X-100 and 1 M sucrose and homogenized at 4° C. using a glass Dounce homogenizer. The homogenates were centrifuged at 100,000×g (38,000 RPM, 70.1 rotor) for one hour at 4° C. […]
A fixed concentration of AD insoluble fraction was incubated with a tritiated reference Abeta ligand ([^3H]-Abeta-Ref) at 10 nM and increasing concentrations of non-radiolabelled example compound 1 in the range of […] to 2 μM for two hours at RT. […] The filters were analyzed on a Microbeta2 scintillation counter (PerkinElmer). […]

[2] = biological target: T2, PD brain-derived a-syn aggregates (Homo sapiens, UniProt P37840); assay: Micro-radiobinding competition assay against [^3H]-a-syn-Ref; type: binding; conditions: for Competition at 1 μM (%): over [^3H]-a-syn-Ref at 20 nM, example compound at 1 μM
T2 construct: from tissue; host or cells: human PD donor brain, sarkosyl-insoluble 100,000 x g pellet
Method: The procedure was adapted from the protocol described in Spillantini et al., 1998. Frozen tissue blocks from PD donors were thawed on ice and homogenized using a glass dounce homogenizer. The homogenate was then centrifuged at 11,000×g (12,700 RPM) in an ultracentrifuge (Beckman, XL100K) for 20 minutes at 4° C. using a pre-cooled 70.1 rotor (Beckman, 342184). Pellets were resuspended in extraction buffer [10 mM Tris-HCl pH 7.4, 10% sucrose, […], 1% protease inhibitor (Calbiochem 539131), 1 mM EGTA, 1% phosphatase inhibitor (Sigma P5726 and P0044)] and centrifuged at 15,000×g (14,800 RPM, a 70.1 Ti rotor) for 20 minutes at 4° C. Pellets were discarded and sarkosyl (20% stock solution, Sigma L7414) was added to the supernatants to a final concentration of 1% at room temperature for one hour. This solution was then centrifuged at 100,000×g (38,000 RPM, 70.1 Ti rotor) for one hour at 4° C. Pellets containing enriched a-syn aggregates were resuspended in PBS and stored at −80° C. until use.
PD brain-derived a-syn aggregates were spotted onto microarray slides. The slides were incubated with the tritiated reference ligand, [^3H]-a-syn-Ref (as described in WO2017/153601) at 20 nM and the example compounds of this invention (non-radiolabelled) either at 1 μM or at increasing concentrations in the range of 50 pM to 2 μM. After incubation, slides were washed and exposed to a phosphor storage screen (GE healthcare, BAS-IP TR 2025). Following exposure, phosphor storage screens were scanned with a laser imaging system (Typhoon FLA 7000) to readout the signal from the radiobinding experiments described above. Quantification of the signal was performed using the ImageJ software package. […] All measurements were performed with at least two technical replicates.
Example compounds were assessed for their potency to compete with the binding of [3H] radiolabelled reference ligand to PD patient brain-derived a-syn aggregates. Results of the micro-radiobinding competition assay for the example compounds tested are shown in Table 5 as: % competition at 1 μM and Ki value. All measurements were performed on the same PD brain-derived a-syn aggregates.

[3] = biological target: T2, PD brain-derived a-syn aggregates; assay: Micro-radiobinding competition assay against Example-1 [^3H-1] (Table 8); type: binding; conditions: competition over Example-1 [^3H-1]
[4] = biological target: T2, PD brain-derived a-syn aggregates; assay: as above; type: binding; conditions: human PD brain-derived a-syn aggregates; for Competition at 100 nM (%): 100 nM non-radiolabelled example compound vs Example-1 [^3H-1] ligand; for Competition at 1 μM (%): 1 μM non-radiolabelled example compound vs Example-1 [^3H-1] ligand
Procedure, shortened: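 Human PD brain-derived α-syn aggregates on microarray slides were co-incubated with 6 nM or 20 nM tritiated radioligand and unlabelled compound at 1 μM and 100 nM, some over 0.05 nM–2 μM. Bound signal read by real-time autoradiography; values are % competition, at least two technical replicates, mean of independent experiments.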

[5] = PK study in a healthy monkey by PET; type: in vivo, Non-Human Primate (NHP); conditions: iv, 6.5 mCi
Method: Non-Human Primate (NHP) was injected intravenously (iv) with the ^18F-labelled Example-1 [^18F-1] (6.5 mCi) using 1 mL ethanol and 14 mL ascorbate/saline (ascorbate solution was prepared at a concentration of 9.3 mg/mL). Monkey PET scans were performed using a Siemens Focus 220. PET acquisition started immediately before the radioactive dose was injected. Images were generated as dynamic scans for 120 minutes with head focused.

T1 sequence (P05067 672-713 limits assumed): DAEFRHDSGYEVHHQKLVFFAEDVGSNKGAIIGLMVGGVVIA

| Structure (SMILES) | Ki [3] [nM] | Competition at 100 nM (%) [4] [%] | Competition at 1 μM (%) [4] [%] | further results |
| --- | --- | --- | --- | --- |
| O=C1c2cn(-c3ccc(N4CC[C@@H](F)C4)nc3)nc2CN1c1cccnc1 [Example 1] |  |  |  | Ki ([1]; displacement of [^3H]-Abeta-Ref at 10 nM, AD brain-derived homogenates): 330 nM; selectivity for a-syn over Abeta pathological aggregates ([1]; in words): good selectivity for a-syn over Abeta; Ki ([2]; displacement of [^3H]-a-syn-Ref, average of two independent experiments): 30 nM; binding to PD brain-derived a-syn aggregates ([2]; in words): good binding; Competition at 1 μM (%) [2]: 94% |
| O=C1c2cn(-c3ccc(N4CC[C@@H](F)C4)nc3)nc2CN1c1ccncc1 [Example 2] | 7 | 72 | 98 | Competition at 1 μM (%) [2]: 68% |
| Cn1ccc(-n2cc3c(n2)CN(c2cncc(F)n2)C3=O)n1 [Example 148] | 40 | 77 | 91 |  |
| O=C1c2cn(-c3ccc(N4CC[C@H](F)C4)nc3)nc2CN1c1cccnn1 [Example 151] | 226 | 51 | 81 |  |
| O=C1c2cn(-c3ccc(N4CC[C@H](F)C4)nc3)nc2CN1c1cccc(O)n1 [Example 163] | 67 | 49 | 99 |  |
| O=C1c2cn(-c3ccc(N4CC[C@@H](F)C4)nc3)nc2CN1c1cc(O)ccn1 [Example 166] | 55 | 72 | 96 |  |
| O=C1c2cn(-c3ccc(N4CC[C@@H](F)C4)nc3)nc2CN1c1ncccc1O [Example 167] | 56 | 68 | 93 |  |
| O=C1c2cn(-c3ccc(N4CC[C@H](F)C4)nc3)nc2CN1c1ncccc1O [Example 169] | 45 | 73 | 96 |  |
| O=C1c2cn(-c3ccc(N4CC[C@H](F)C4)nc3)nc2CN1c1cn[nH]c1 [Example 181] | 136 | 67 | 75 |  |
| O=C1c2cn(-c3ccc(N4CC[C@@H]([18F])C4)nc3)nc2CN1c1cccnc1 [Example-1 [^18F-1]] |  |  |  | SUVmax whole brain [5]: 2.0; time of uptake post injection ([5]; whole brain): 3.5 min; washout, peak to half peak ([5]; whole brain): 14 min |

— patent publication US12552800B2, “Compounds for diagnosis” (AC IMMUNE SA, priority 2020, dated 2026)
